Entries after “also recorded” stand apart in the source; their conditions may differ. Like-named read-outs stand apart in the source and are kept apart here.
Key:
[1] = system: Calcium-sensitive Cl^− channels; test: UTP-stimulated Ca^2+-dependent Cl^− secretion, short-circuit current in human bronchial epithelial cells; format: cell-based
Source text: Two non-CFTR Cl^− channels were studied.

[2] = target: T1, MDR-1 (Homo sapiens, UniProt P08183); test: MDR-1 activity, ^3H-vincristine accumulation in 9HTEo-/Dx cells; format: cell-based; details: 5 μM
T1 construct: endogenous in cells; host or cells: 9HTEo-/Dx cells
T1 sequence (P08183 whole entry): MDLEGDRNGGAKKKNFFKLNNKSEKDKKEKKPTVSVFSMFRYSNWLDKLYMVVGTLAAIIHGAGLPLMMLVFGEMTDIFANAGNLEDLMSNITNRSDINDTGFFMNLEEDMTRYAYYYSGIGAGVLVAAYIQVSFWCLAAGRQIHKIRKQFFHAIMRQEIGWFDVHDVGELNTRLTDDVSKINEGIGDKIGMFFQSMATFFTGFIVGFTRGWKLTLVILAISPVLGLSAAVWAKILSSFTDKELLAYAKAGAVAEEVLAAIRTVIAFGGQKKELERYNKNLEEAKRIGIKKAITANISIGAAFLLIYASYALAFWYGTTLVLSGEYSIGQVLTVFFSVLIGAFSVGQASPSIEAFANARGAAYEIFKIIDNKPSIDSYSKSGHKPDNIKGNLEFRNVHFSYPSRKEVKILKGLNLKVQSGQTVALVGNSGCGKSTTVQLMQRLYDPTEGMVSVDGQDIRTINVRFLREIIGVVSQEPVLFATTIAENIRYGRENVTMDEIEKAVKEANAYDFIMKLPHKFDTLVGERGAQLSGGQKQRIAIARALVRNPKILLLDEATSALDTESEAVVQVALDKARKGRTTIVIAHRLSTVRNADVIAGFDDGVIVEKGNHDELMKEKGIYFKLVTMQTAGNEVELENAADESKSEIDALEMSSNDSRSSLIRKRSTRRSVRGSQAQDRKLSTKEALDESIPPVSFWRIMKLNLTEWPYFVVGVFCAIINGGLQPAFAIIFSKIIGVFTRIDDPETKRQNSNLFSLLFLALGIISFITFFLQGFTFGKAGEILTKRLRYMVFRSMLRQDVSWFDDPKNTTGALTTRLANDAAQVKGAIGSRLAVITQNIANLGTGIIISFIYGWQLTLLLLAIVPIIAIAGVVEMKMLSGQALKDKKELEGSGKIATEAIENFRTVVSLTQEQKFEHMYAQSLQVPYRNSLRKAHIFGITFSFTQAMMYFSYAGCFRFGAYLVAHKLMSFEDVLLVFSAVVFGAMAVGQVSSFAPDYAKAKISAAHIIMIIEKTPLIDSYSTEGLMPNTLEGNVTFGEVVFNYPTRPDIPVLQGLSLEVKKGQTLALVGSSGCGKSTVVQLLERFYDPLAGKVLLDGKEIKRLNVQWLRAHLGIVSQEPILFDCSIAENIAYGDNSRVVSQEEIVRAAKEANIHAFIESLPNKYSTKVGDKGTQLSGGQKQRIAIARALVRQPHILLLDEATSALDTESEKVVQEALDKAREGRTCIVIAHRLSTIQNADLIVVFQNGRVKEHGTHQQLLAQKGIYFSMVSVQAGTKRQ

[3] = target: T2, water channel (AQP1) (Homo sapiens, UniProt P29972); test: Water channel block; details: 5 μM
T2 sequence (P29972 1-269): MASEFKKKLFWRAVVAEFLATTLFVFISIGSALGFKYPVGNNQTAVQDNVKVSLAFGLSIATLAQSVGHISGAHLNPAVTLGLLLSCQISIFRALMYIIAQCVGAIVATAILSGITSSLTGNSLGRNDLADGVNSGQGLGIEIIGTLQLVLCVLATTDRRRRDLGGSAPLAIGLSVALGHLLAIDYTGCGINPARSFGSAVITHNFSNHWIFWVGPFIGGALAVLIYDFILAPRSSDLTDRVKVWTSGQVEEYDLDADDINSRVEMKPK

[4] = system: FRT cells; test: Cell toxicity by dihydrorhodamine method; format: cell-based, rat; details: dihydrorhodamine assay, after 24 hours
[5] = Animal toxicity in mice; format: in vivo
[6] = system: cholera toxin-induced intestinal fluid secretion; design: species or system mice; details: mouse, in vivo, ip
[7] = system: cholera toxin-induced fluid secretion; design: species or system mice; details: mouse, in vivo, po
[8] = Pharmacokinetic analysis in rats after intravenous bolus; format: in vivo
Method: A bolus of ^14C-CFTRinh-172 (50 μCi) in PBS containing 3% DMSO (titrated to pH 7.4 using NaOH) was administered intravenously in rats over 1 min (male Sprague-Dawley rats, 360-420 grams) by an indwelling jugular catheter. Blood was collected from the catheter at specified times. ^14C-Radioactivity was determined in plasma (isolated by centrifugation of whole blood at 14,000 g for 10 min) by scintillation counting (Scintiverse SE, Fisher, Calif.) using a LS-6500 Multi-Purpose Scintillation Counter (Beckman). Pharmacokinetic analysis was done using WinNonLin software (Pharsight). Rats were sacrificed by pentobarbital overdose after collection of the final blood/tissue samples. All animal procedures were approved by the UCSF Committee on Animal Research.

[9] = Analysis of inhibitor metabolism by thin layer chromatography and autoradiography; format: in vivo, mice; details: urine, serum, bile, liver homogenate; TLC autoradiography
Source text: Film was exposed for autoradiography for 48 hr (left panel) and 12 hr (right panel).
Aliquots of bodily fluids (plasma, urine, bile) and liver homogenate were spotted onto Silica plates and resolved by thin layer chromatography using a ethyl acetate:hexane:methanol (1:1:0.1) solvent system which gave rf ˜0.5 for the original inhibitor.

[10] = Pharmacokinetic and oral bioavailability studies in mice; format: in vivo
Method: For comparison other mice were given ^14C-CFTRinh-172 (2 μCi) intravenously by tail vein infusion. Blood was collected from the tail vein at specified times for measurement of plasma ^14C radioactivity. At 6 hours mice were killed by pentobarbital overdose and organs were removed for measurement of radioactivity in homogenates.

[11] = system: cholera toxin-induced fluid secretion; design: species or system rats; details: in vivo
[12] = target: T3, CFTR (Mus musculus, UniProt P26361); test: Short-circuit current in mouse ileum
T3 construct: from tissue; host or cells: mouse ileum (wildtype CD1 mice)
T3 sequence (P26361 whole entry): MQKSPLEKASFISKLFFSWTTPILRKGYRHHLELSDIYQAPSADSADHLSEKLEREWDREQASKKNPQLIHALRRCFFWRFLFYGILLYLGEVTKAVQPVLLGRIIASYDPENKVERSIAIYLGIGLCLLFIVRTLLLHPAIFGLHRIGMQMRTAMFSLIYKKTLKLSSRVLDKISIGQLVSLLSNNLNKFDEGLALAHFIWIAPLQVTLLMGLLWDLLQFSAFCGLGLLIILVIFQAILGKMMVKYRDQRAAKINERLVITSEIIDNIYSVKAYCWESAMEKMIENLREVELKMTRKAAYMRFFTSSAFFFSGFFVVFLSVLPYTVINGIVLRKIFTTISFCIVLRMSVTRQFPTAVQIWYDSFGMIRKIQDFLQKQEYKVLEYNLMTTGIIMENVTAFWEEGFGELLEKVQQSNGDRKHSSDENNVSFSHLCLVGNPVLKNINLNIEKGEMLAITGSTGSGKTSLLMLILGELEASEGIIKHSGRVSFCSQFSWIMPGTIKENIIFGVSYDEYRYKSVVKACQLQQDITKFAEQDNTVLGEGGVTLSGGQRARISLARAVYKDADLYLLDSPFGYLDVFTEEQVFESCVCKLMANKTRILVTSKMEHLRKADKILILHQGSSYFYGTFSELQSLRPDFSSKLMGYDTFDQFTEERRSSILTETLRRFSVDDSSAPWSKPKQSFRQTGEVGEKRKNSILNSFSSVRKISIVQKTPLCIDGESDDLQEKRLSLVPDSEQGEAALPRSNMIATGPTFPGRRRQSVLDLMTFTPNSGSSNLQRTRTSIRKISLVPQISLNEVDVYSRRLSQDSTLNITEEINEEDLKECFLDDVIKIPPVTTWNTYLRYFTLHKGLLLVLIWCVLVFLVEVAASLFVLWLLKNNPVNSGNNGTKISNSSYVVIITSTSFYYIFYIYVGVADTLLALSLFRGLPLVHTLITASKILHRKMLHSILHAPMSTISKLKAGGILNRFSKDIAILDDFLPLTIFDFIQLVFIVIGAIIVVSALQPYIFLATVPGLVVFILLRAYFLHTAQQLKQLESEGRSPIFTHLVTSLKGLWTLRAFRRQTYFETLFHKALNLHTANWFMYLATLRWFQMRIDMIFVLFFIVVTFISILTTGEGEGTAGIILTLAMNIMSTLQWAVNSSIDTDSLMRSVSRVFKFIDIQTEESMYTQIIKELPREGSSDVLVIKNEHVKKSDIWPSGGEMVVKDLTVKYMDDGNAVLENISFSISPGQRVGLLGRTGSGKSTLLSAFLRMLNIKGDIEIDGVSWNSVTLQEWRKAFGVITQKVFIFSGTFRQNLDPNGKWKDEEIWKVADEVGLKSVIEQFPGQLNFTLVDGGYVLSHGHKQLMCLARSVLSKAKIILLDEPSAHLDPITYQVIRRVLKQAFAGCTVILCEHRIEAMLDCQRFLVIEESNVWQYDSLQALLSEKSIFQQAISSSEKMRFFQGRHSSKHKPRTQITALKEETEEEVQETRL

[13] = target: T4, CFTR (Homo sapiens, UniProt P13569)
T4 sequence (P13569 whole entry): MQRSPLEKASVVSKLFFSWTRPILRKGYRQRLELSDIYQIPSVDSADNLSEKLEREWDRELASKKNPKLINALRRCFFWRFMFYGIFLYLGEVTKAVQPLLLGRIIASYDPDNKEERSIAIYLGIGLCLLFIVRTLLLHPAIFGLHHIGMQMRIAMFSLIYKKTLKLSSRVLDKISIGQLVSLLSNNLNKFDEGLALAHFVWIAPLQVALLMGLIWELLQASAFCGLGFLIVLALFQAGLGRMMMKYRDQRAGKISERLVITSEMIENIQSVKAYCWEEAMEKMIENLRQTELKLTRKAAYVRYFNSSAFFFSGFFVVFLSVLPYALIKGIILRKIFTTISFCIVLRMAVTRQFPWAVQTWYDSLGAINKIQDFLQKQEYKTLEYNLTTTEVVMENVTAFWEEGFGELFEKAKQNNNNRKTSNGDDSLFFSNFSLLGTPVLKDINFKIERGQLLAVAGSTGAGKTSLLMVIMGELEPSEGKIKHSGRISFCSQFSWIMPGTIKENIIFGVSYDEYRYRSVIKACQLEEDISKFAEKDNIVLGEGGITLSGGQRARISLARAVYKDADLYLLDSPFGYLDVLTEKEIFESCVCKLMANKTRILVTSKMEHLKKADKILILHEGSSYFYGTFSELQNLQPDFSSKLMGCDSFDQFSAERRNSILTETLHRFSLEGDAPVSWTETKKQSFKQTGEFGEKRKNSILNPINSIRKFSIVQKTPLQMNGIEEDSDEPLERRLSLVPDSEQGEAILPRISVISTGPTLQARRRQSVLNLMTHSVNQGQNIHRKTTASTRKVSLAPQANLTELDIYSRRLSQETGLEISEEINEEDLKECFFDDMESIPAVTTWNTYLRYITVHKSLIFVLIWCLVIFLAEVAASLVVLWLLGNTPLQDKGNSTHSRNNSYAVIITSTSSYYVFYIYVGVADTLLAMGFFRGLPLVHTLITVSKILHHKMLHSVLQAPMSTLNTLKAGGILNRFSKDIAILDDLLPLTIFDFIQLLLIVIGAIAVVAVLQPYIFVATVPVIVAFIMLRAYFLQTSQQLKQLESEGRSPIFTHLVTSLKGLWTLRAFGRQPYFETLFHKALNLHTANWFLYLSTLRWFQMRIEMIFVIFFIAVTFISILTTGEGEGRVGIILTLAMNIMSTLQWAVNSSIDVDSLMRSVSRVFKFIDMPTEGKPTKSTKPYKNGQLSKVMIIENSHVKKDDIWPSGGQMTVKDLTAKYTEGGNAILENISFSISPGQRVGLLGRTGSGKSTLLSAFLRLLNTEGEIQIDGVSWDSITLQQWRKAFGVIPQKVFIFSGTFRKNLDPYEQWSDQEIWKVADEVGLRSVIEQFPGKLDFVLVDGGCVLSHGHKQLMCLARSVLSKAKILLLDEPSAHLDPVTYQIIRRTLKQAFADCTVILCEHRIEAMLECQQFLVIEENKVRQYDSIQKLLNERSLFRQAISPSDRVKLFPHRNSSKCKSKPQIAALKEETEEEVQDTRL

[14] = target: T4, CFTR; remark: listed apart in the source
[15] = target: wildtype CFTR (Homo sapiens, UniProt P13569); test: Short-circuit current in primary culture of human bronchial epithelial cells; format: cell-based; design: cells that natively express wildtype CFTR; endogenous in cells; host or cells: primary human bronchial epithelial cells
wildtype CFTR, sequence (P13569 whole entry): as above

[16] = target: T4, CFTR; test: Electrophysiological studies in Calu-3 cells; format: cell-based; design: cells that natively express wildtype CFTR, including T84 cells; endogenous in cells; host or cells: T84 colonic epithelial cells (UCSF cell culture facility); details: read-out: apparent potency in electrophysiological studies
[17] = intraperitoneal 1000 μg/kg daily for 7 days
[18] = rat, i.v. bolus, 2-compartment model

With `O=C(O)c1ccc(/C=C2\SC(=S)N(c3cccc(C(F)(F)F)c3)C2=O)cc1` [CFTRinh-172, 3-[(3-trifluoromethyl)phenyl]-5-[(4-carboxyphenyl)methylene]-2-thioxo-4-thiazolidinone] the “inhibition of Ca^2+ activated secretion” value ([1]; 5 μM, UTP 100 μM) was “did not inhibit”, the “maximal UTP-dependent short-circuit current” value ([1]; in presence of 5 μM inhibitor (SE, n=4)) was 10.0±0.2 μA/cm^2 and the vincristine accumulation [2] was “did not affect vincristine accumulation”. For the same compound, the “block of water channel (AQP1)” value [3] was “did not block”, the “concentration non-toxic to FRT cells” value [4] was “up to 100 μM” and the “food and water intake” value [5, 17] was “not diminished”. For the same compound, the overt toxicity [5, 17] was “did not cause overt toxicity”, the “serum electrolyte concentrations, glucose, liver function indices, serum creatinine, amylase and hematocrit” value [5, 17] was “not changed” and the overt toxicity ([5]; single systemic dose 10 mg/kg) was “did not cause overt toxicity”. The “fluid accumulation in cholera toxin-treated loops” value [6] was “effectively prevented fluid accumulation; also recorded: significantly reduced fluid secretion to that in saline control loops”, the “inhibition of fluid accumulation in cholera toxin-injected loops” value [6] was roughly 90% and the “inhibition of luminal fluid accumulation” value [6] was “significant inhibition of luminal fluid accumulation; also recorded: much less inhibition”. For the same compound, the “t1/2 for persistence of inhibition” value [6] was 9 to 10 h, the “cholera toxin-induced fluid secretion” value [7] was “Inhibition of cholera toxin-induced fluid secretion” and the detection in plasma ([8]; 72 hr after administration) was “No ^14C-labeled CFTRinh-172 was detected”. For the same compound, the “detection in liver or kidney homogenates” value ([8]; 14 days after administration) was “No ^14C-labeled CFTRinh-172 was detected”, the “area under curve (AUC)” value [8, 18] was 3800 ng·h/mL and the clearance [8, 18] was 99 mL/h. The elimination half-time [8, 18] was 10.3 h, the maximum serum concentration [8, 18] was 3.2 µg/mL and the redistribution half-time [8, 18] was 0.14 h. The volume of distribution [8, 18] was 1.2 L, the “chemical modification (metabolism)” value [9] was “did not occur” and the organ distribution ([10]; 6 hr after oral and intravenous administration) was “accumulation in the gastrointestinal tract as well as the liver and kidney”. The oral bioavailability ([10]; TPGS preparation, oral vs. intravenous tissue/serum content at 4-6 hr) was 15-20%, the “time over which high initial serum concentrations decreased (tissue redistribution)” value ([10]; mice, intravenous) was roughly 30 min and the “time of peak serum radioactivity” value ([10]; mice, oral administration in TPGS) was 60 to 90 min. For the same compound, the “concentration of ^14C radioactivity in bile vs. serum” value ([10]; mouse, in vivo) was roughly 10 fold, the “radioactivity excreted in the stool” value ([10]; over 24 hr) was < 10 % of total excreted radioactivity and the “cholera-toxin induced fluid secretion in rat intestinal loops” value [11] was “prevented cholera-toxin induced fluid secretion”. The IC50 ([12]; forskolin (cAMP-dependent chloride secretion), read-out: concentration for fifty percent inhibition of short-circuit current) was roughly 5000 nM, the IC50 ([12]; intact intestine, read-out: apparent potency for inhibition of intestinal short-circuit current) was 2000 to 5000 nM and the “effect on membrane current” value ([13]; 2 μM extracellular perfusion, after 5 μM forskolin) was “rapid reduction in current at all membrane potentials”. It also gave an inhibition at 0.2 µM ([13]; FRT, read-out: inhibition of membrane current) of roughly 50%, an IC50 [14] of 200 to 500 nM and a Kd [14] of roughly 300 nM. For the same compound, the Hill coefficient ([14]; dose-inhibition of short-circuit current) was roughly 1, the “inhibition of short-circuit current” value ([15]; added from the basolateral side) was “inhibited short-circuit current” and the “inhibition of short-circuit current” value ([15]; apical side, amiloride, after CPT-cAMP activation) was “inhibited short-circuit current strongly”. It also gave an IC50 [16] of 500 nM.
